According to patent US4863748A, “Dietary products and uses comprising methylsulfonylmethane” (priority 1986, dated 1989):

Assays:
[1] = test system: arthritic patients; test: Chemical profile of arthritic patients; assay type: in vivo, human; conditions: drop from 600+
Description: 8. Improving the chemical profile of arthritic patients, e.g., providing relief from pain and stiffness, reduced swelling and inflammation, coupled with a return of blood chemistry towards normalcy, for example, a RH titer drop from 600+to 300 or lower.

[2] = test system: rheumatoid arthritis and other intense pain-producing disease; test: Intravenous administration in acute intense pain-producing disease; assay type: in vivo, human
Description: In U.S. Pat. No. 4,296,130, I teach that methylsulfonylmethane is so inert and non-toxic that aqueous solutions thereof can be used as a blood diluent. In healthy humans or other animals having adequately high methylsulfonylmethane blood levels, methylsulfonylmethane is in fact "inert" in the sense the term is used in that patent. However, in acutely ill patiets, dramatic beneficial benefits are often obtained by the intravenous administration of large doses of methylsulfonylmethane. For example, rheumatoid arthritic patients suffering from a flair-up of the disease which produces intense pain or crippling swelling of the joints or both achieve prompt relief, even those patients who obtain only minimal or delayed benefits from oral ingestion of methylsulfonylmethane.
Apparently, when a patient is in an acute stage of intense pain-producing disease, such as rheumatoid arthritis, osteoporosis, degenerative disc syndrome, an autoimmune disease or metathesized carcinoma, which produces intense pain, the relief from pain from oral ingestion of methylsulfonylmethane is sometimes too subtle or takes too long for the patient to obtain reasonably prompt subjective benefits therefrom.
Therefore, in one aspect this invention relates to a method for rapidly ameliorating at least the pain associated with an intense pain-producing disease by the intravenous administration of methylsulfonylmethane in an amount effective to ameliorate the pain.
The amount of methylsulfonylmethane intravenously administered can vary substantially because of its lack of toxicity and adverse side effects. Individual doses can vary from about 0.01 to 2 gm/kg, preferably from about 0.1 to 1 gm/kg, on a body weight basis, the usual dosage range is about 0.25 to 0.75 gm/kg, preferably about 0.5 gm/kg.
When large amounts are administered, e.g., in the order of 1 g/kg of body weight or more, i.e., infusion of 5% to 10% solution of methylsulfonylmethane in water, physiological saline or 5% dextrose is preferred. The rate of administration is preferably no greater than about 1 gm/kg/hr, although infusion rates as high as 2 gm/kg/hr are tolerated by patients, except for light-headedness of the type experienced by some blood donors is experienced by some patients at this rate.
For patients suffering from a serious chronic disease, e.g., an acute stage of rheumatoid arthritis or other acute inflammatory conditions or a patient in extreme pain, administer 1 gm/kg of methylsulfonylmethane i.v. as a 14% by wt. solution in sterile 5% dextrose solution, at the rate of 1 gm/kg/hr. Within 2-4 hours, significant subjective relief from the symptoms of the disease or condition is experienced by the patient, with the relief lasting for from 7 to 21 days.

[3] = test system: gum inflammation and oral mucosa; test: Oral hygiene (Example 11); assay type: in vivo, human
[4] = test system: subjects in apparent good health; test: Maintenance of good health (Example 12); assay type: in vivo, human
Experimental: 14 subjects of both sexes, all in apparent good health, ages 33-59, were given oral methylsulfonylmethane in amounts ranging from 250 to 500 mg daily which maintained their blood levels above 1 ppm. These individuals were continued on methylsulfonylmethane, taken as a solution in orange juice for periods of from about seven months to over one year.

[5] = test system: weight gain; test: Diet supplement in animals (Example 18); assay type: in vivo, laboratory animals, including dogs
Description: A possible explanation for this is that any minor allergic response to the diet was neutralized by the methylsulfonylmethane.

[6] = test system: sun and wind burn; test: Sun and wind burn (Example 23); assay type: in vivo, human; conditions: 0.5-2 gm/day, about 4 hours exposure; companions severely burned
[7] = test system: leg cramps; test: Leg cramps in marathon runner (Example 27); assay type: in vivo, human; conditions: 15 mg/kg/day, at least 7 days
Experimental: Before a marathon race, administer methylsulfonylmethane to the runner for at least 7 days at the rate of 15 mg/kg/day.

[8] = test system: Giardia lamblia; test: In vitro inhibition of Giardia lamblia (Example 28(b)); assay type: cell-based
Experimental: However, at 20 mg/ml concentration, it was strongly inhibitory and concentrations above 40 mg/ml promptly killed the organism.

[9] = test system: emphysema and lung tumor respiratory deficiency; test: Treatment of lung dysfunction (Example 29); assay type: in vivo, human
Experimental: Seven human subjects with respiratory deficiency were given methylsulfonylmethane by the oral route in amounts ranging from 250-1,500 mg/day, in single or divided units. Five presented emphysema believed associated with cigarette smoking. Two presented tumor involvement of the lung with additional function impairment due to pleural fluid accumulation.
Two of five subjects with emphysema had prior cardiorespiratory function tests and follow-up evaluations at six and eight weeks after starting a course of 500 mg/day orally of methylsulfonylmethane.
Prior to and during the test period, at approximately two-week intervals, all presenting emphysema were required to walk a measured distance compatible with their physical resources. […] The lung cavity fluid problem of each subject disappeared during the first months of the test period.

[10] = test system: t-lymphocyte dependent and t-lymphocyte independent immune responses; test: Humoral immune responses in mice (Example 37); assay type: in vivo, balb/c strain mice; conditions: 3% by wt. in water
Experimental: Laboratory mice genetically predisposed to lymphoma development were selected for this test. Humoral immunity participation was measured as was the effect of methylsulfonylmethane on an animal's life span. One set of 12 mice were maintained as controls. The treated (T) group received identical treatment except for their water given ad lib, which contained 3% by wt. of methylsulfonylmethane in solution.
By month 4 of this test, all controls were dead, due to lymphoma development. […] These normal balb/c strain mice of group T were tested for t-lymphocyte dependent (t-d) and t-lymphocyte independent (t-i) immune responses. […] Based on these preliminary results, at high enough daily rates of ingestion, methylsulfonylmethane stimulates humoral immunity thereby providing protection to otherwise lethal spontaneous mouse lymphomas.

[11] = test system: urinary taurine secretion; conditions: man; cited from earlier work
[12] = test system: lymphomas; conditions: oral, cited from earlier work
[13] = 1 gm/kg i.v., 14% solution in 5% dextrose, 1 gm/kg/hr (Example 34)
[14] = 250 to 500 mg daily, seven months to over one year
[15] = about 60 and about 500 mg/day/kg body wt.

For CS(C)(=O)=O [methylsulfonylmethane], the RH titer [1] was ≤ 300, the duration of relief [2, 13] was 7 to 21 days and the “time to significant subjective relief from symptoms” value [2, 13] was 2 to 4 h. The “time to relief from pain” value ([2]; i.v.) was “within hours and often within minutes”, the “relief in flare-up of rheumatoid arthritis” value ([2]; i.v., large doses) was “prompt relief” and the “duration of remission maintained with oral ingestion after one i.v. administration” value ([2]; one i.v., then oral) was “weeks or months”. For the same compound, the sense of taste ([3]; critical observers) was “improved”, the sense of smell ([3]; gargle, two subjects with restricted sense of smell) was “sharpening of this sense” and the “bad breath associated with smoking or food” value ([3]; in water, saline solution or oral hygiene product) was “reduced or eliminated”. For the same compound, the “viscosity of the mucous” value ([3]; subjects with viscid mucoid nasopharyngeal discharge) was “reduction in the viscosity of the mucous”, the blood level ([4]; 250 to 500 mg daily oral) was “above 1 ppm” and the illness during testing [4, 14] was “None of the 14 became ill”. For the same compound, the reported well-being [4, 14] was “feeling better and stronger with increased endurance”, the fur quality [5, 15] was “improved” and the nail growth [5, 15] was “somewhat faster”. For the same compound, the “weight gain of immature animals vs controls” value [5, 15] was “gained weight at a greater rate”, the “weight increases with adult animals” value ([5]; comparable feeding experiments) was “not seen” and the “suffering from sun and wind exposure” value [6] was “suffered only mildly”. The “likelihood of severe leg cramp during or after race” value [7] was “significantly reduced”, the “concentration promptly killing the organism” value [8] was “above 40 mg/ml” and the “concentration with no significant inhibition” value [8] was ≤ 1 mg/mL. The strongly inhibitory concentration [8] was 20 mg/mL, the “cardiorespiratory function values, in particular arterial oxygen tension” value ([9]; 500 mg/day orally, two emphysema subjects, six and eight weeks) was “both had values in the normal range” and the comfortable walking distance ([9]; emphysema sufferers, alone or with 1000 mg ascorbic acid/day, within 2-4 weeks) was “at least doubled”. The “alertness, comfort and outlook” value ([9]; two subjects with lung tumors) was “more alert, comfortable, and with a better outlook and attitude”, the “lung cavity fluid problem” value ([9]; two subjects with lung tumors, first months) was “disappeared” and the “primary IgM and secondary IgG responses to sheep erythrocytes (SRBC)” value [10] was “significantly enhancement”. The tnp-ficoll response [10] was “significant suppression”, the “urinary taurine secretion produced by aromatic hydrocarbons” value [11] was “enhances” and the development of lymphomas ([12]; compared with control) was “significant delay”. For the same compound, the tumor incidence ([12]; compared with control) was “decreased”, the joint involvement ([12]; only grossly examined) was “marked reduction” and the “titer of primary IgM and secondary IgG” value [12] was “increased titer”.
